Experimental data published in the NIST ThermoML archive (doi:10.1007/s10765-006-0095-5).

Experiments:
[1] = xn = mol fraction of the nth substance listed; settings: 318.15 K, 101 kPa, Liquid
[2] = refractive index (Na D-line) (dimensionless); xn = mol fraction of the nth substance listed; settings: 101 kPa, Liquid

CCN(CC)CC [triethylamine] + c1ccccc1
[1]
Settings	mass density [kg/m3]
x2 = 0.7035	789.5
x2 = 0.8079	810.5
x2 = 0.9069	833.1

refractive index, [2]
Settings	278.15 K	283.15 K	288.15 K	293.15 K	298.15 K	303.15 K	308.15 K	313.15 K	318.15 K
x2 = 0.1145	1.4149	1.4133	1.4113	1.409	1.4062	1.4038	1.4009	1.3988	1.3961
x2 = 0.2043	1.4197	1.418	1.416	1.4137	1.411	1.4088	1.4061	1.4043	1.4017
x2 = 0.3005	1.4261	1.4243	1.4224	1.4201	1.4173	1.4151	1.4125	1.4107	1.4082
x2 = 0.4005	1.4336	1.4318	1.43	1.4278	1.425	1.4228	1.4203	1.4185	1.4161
x2 = 0.5023	1.4421	1.4404	1.4387	1.4366	1.4338	1.4317	1.4293	1.4275	1.4252
x2 = 0.6037	1.4518	1.4501	1.4485	1.4465	1.4438	1.4418	1.4395	1.4378	1.4356
x2 = 0.7035	1.4625	1.4609	1.4594	1.4576	1.4549	1.4531	1.451	1.4495	1.4474
x2 = 0.8079	1.4756	1.474	1.4727	1.471	1.4683	1.4666	1.4647	1.4632	1.4613
x2 = 0.9069	1.4902	1.4886	1.4872	1.4856	1.4829	1.4812	1.4795	1.4779	1.4759
